Measured values published in ChEMBL document CHEMBL5532656, “Novel ligustilide derivatives target quorum sensing system LasR/LasB and relieve inflammatory response against Pseudomonas aeruginosa infection” (Eur J Med Chem, 2024).
Activity calls are given as the source filed them. The rule behind the calls is not given here.

What was measured:
RAW264.7 [1] = test: Antiinflammatory activity in LPS-induced mouse RAW264.7 cells assessed as decrease in COX-2 expression level pretreated for 3 hrs followed by LPS stimulation and measured after 24 hrs by Western blot analysis; assay type: functional, cell-based; settings: dose 1.25-10 µmol/L, time 27.0 hrs
Pseudomonas aeruginosa [2] = test: Anti-biofilm activity against Pseudomonas aeruginosa PAO1 assessed as suppression of biofilm formation at 1.25 to 10 uM incubated for 24 hrs by PI staining based confocal fluorescence microscopy based analysis; assay type: functional, organism-based; settings: dose 1.25-10 µM
Mus musculus [3] = test: Protection against LPS-induced acute lung injury mouse model assessed as inhibition of alveolar wall thickening at 1 to 2 mg/kg, po preincubated for 4 hrs followed by LPS stimulation and measured after 6 hrs by H and E staining based analysis; assay type: functional, organism-based; settings: dose 1-2 mg/kg, time 10.0 hrs
Mus musculus [4] = test: Protection against LPS-induced acute lung injury mouse model assessed as inhibition of neutrophil infiltration at 1 to 2 mg/kg, po preincubated for 4 hrs followed by LPS stimulation and measured after 6 hrs by H and E staining based analysis; assay type: functional, organism-based; settings: dose 1-2 mg/kg, time 10.0 hrs
Mus musculus [5] = test: Anti-inflammatory activity against LPS-induced acute lung injury mouse model assessed as reduction in myeloperoxidase activity at 1 to 2 mg/kg, po preincubated for 4 hrs followed by LPS stimulation and measured after 6 hrs by spectrophotometer analysis; assay type: functional, organism-based; settings: dose 1-2 mg/kg, time 10.0 hrs
Mus musculus [6] = test: Anti-inflammatory activity against LPS-induced acute lung injury mouse model assessed as downregulation of TNF-alpha level administered as po dose preincubated for 4 hrs followed by LPS stimulation and measured after 6 hrs by ELISA method; assay type: functional, organism-based; settings: dose 1-2 mg/kg, time 10.0 hrs
[7] = Inhibition of quorum sensing system in Pseudomonas aeruginosa PAO1-lasB-gfp at 10 uM relative to control
RAW264.7 [8] = test: Antiinflammatory activity in LPS-induced mouse RAW264.7 cells assessed as inhibition of IL-1 beta production pretreated for 3 hrs followed by LPS stimulation and measured after 24 hrs by ELISA method; assay type: functional, cell-based
Erythrocyte = test: Hemolytic activity in human erythrocytes assessed as hemolysis at 0.625 to 10 micromol/L measured after 4 hrs by microplate reader method; assay type: toxicity, cell-based; settings: dose 0.625-10 µmol/L
Pseudomonas aeruginosa [9] = test: Anti-biofilm activity against Pseudomonas aeruginosa PAO1 assessed as reduction in biofilm formation incubated for 24 hrs by crystal violet staning based analysis; assay type: functional, organism-based
RAW264.7 [10] = test: Antiinflammatory activity in LPS-induced mouse RAW264.7 cells assessed as inhibition of NF-kappaB p65 expression pretreated for 3 hrs followed by LPS stimulation and measured after 24 hrs by Western blot analysis; assay type: functional, cell-based; settings: dose 1.25-10 µmol/L, time 27.0 hrs
RAW264.7 [11] = test: Antiinflammatory activity in mouse RAW264.7 cells assessed as reduction in IL-1 beta mRNA expression at 2.5 to 10 uM by RT-PCR analysis; assay type: functional, cell-based; settings: dose 2.5-10 µM
RAW264.7 [12] = test: Antiinflammatory activity in LPS-induced mouse RAW264.7 cells assessed as inhibition of IkappaB-alpha expression pretreated for 3 hrs followed by LPS stimulation and measured after 24 hrs by Western blot analysis; assay type: functional, cell-based; settings: dose 1.25-10 µmol/L, time 27.0 hrs
RAW264.7 [13] = test: Antiinflammatory activity in mouse RAW264.7 cells assessed as reduction in IL-6 mRNA expression at 2.5 to 10 uM by RT-PCR analysis; assay type: functional, cell-based; settings: dose 2.5-10 µM

Compound: CCCCC1(O)C2=C(C=CCC2)C(=O)N1Cc1ccc(C(F)(F)F)cc1 (stereo not given)
- Activity (RAW264.7 [1]): Dose-Dependent Effect
- Activity (Pseudomonas aeruginosa [2]): Dose-Dependent Effect
- Activity (Mus musculus [3]): Active
- Activity (Mus musculus [4]): Active
- Activity (Mus musculus [5]): Active
- Activity (Mus musculus [6]): Dose-Dependent Effect
- inhibition [7]: 51.6%
- IC50 (RAW264.7 [8]): 18.2 µM
- Activity (Erythrocyte): Toxic
- IC50 (Pseudomonas aeruginosa [9]; PAO1, 24 h): 7.4 µM
- Activity (Pseudomonas aeruginosa [9]; dose 0.625-10 µM): Dose-Dependent Effect
- Activity (RAW264.7 [10]): Dose-Dependent Effect
- Activity (RAW264.7 [11]): Active
- Activity (RAW264.7 [12]): Dose-Dependent Effect
- Activity (RAW264.7 [13]): Active
